Source: patent US12480166B2, “Multiplexed fuel analysis” (ANDE Corporation, priority 2018, dated 2025)

Experiments:
general bacteria 16S,T1 = assay: General 6-plex Fuel Assay (multiplexed PCR after centrifugation/DNaseI processing) of commercial fleet diesel samples before and after biocide treatment; format: cell-based; settings: real-world diesel samples from commercial fleets, after vs before biocide treatment; FIG. 41
Description: (§1) The approach relies in part on centrifugation to allow phase separation and to separate the intact microbial cells and cellular debris from the exposed, extracellular genomic DNA material. The extracellular material is then selectively degraded with addition of an enzyme, DNaseI. Note than DNA degradation enzymes in addition to DNAseI can be used in this approach-many such enzymes are available including restriction enzymes (particularly frequent cutters), other endonucleases, and exonucleases. DNA may also be degraded using physical methods.
(§2) Mock fuel samples were prepared by adding 200 μl of buffer (e.g. 1×PBS, or a preferred solution to prevent cells from lysing while providing an optimal chemical environment for downstream processing) to 800 μl of diesel fuel (previously determined to be negative for microbial contamination) and spiked with 500 ng of purified Bacillus DNA and live Pseudomonas cells (approximately […]). This allowed clear distinction between DNA present extracellularly and intracellularly. The resulting sample was mixed by multiple inversions and then subjected to centrifugation at 20,000×g for 2 minutes to pelletize the live Pseudomonas cells. […]
(§3) Biocide performance was also measured using an ATP assay for measurement of total microbial load. […]

[1] = tested on: filamentous fungi 18S, T3; assay: as above; format: cell-based; settings: real-world diesel samples from commercial fleets, after vs before biocide treatment; FIG. 41
Description: as §1, §2, §3

Structure (SMILES): N#CSCSC#N [biocide, methylenebisthiocyanate]
- decline in general bacteria 16S,T1 signal after biocide treatment (general bacteria 16S,T1): approximately 75%
- filamentous fungi 18S, T3 signal after biocide treatment [1]: loss
